The test system of data set [1] is proliferating T cells. Description: PMET activity measured by WST-1/PMS reduction. As to conditions: Homo sapiens, T-cell, read-out: IC50 inhibition of PMET (WST-1/PMS reduction). It counts as cell-based. As to the method: (§1) Immediately prior to experiments, frozen PBMC were thawed, centrifuged at 1400 rpm in a Multifuge 3 s (Heraeus) for 4 min, washed in RPMI+10% FCS and resuspended in T cell medium (RPMI+10% FCS+10 μM 2-mercaptoethanol (Sigma), 1×glutamine, 1×non-essential amino acids (Gibco)) at 2×10^6 cells/mL. Cells (2×10^5) were activated by adding 10 μg/mL anti-CD3 and 5 μg/mL anti-CD28 and 20 U/mL IL-2 per well. Cells were incubated at 37° C. in a humidified incubator maintained at 5% CO2 for 4 to 5 days until large numbers of large spherical aggregates or “bursts” of lymphocytes were observed. Activated proliferating T cells were pooled from the wells for further experiments. Resting T cells were incubated for the same length of time but in the presence of 20 U/mL IL-2 only.
(§2) WST-1/PMS reduction rates were measured in a microplate format as described previously (Berridge and Tan, 1998). […] WST-1 reduction was measured in real time at 450 nm over 30-60 min in a BMG FLUOstar OPTIMA plate reader.
(§3) The effect of PXD on PMET (FIG. 1A) was investigated by measuring reduction of the cell impermeable tetrazolium dye, WST-1, in the presence of its obligate intermediate electron acceptor, 1 mPMS (WST-1/PMS reduction). […] The effect of PXD on proliferation (FIG. 1B) was determined by measuring intracellular reduction of the tetrazolium salt, MTT.
A general note: Tetrazolium assays rely on reduction of a dye to a coloured formazan, in cell work by metabolically active cells.

Data set [2] relates to resting T cells. Description: PMET activity measured by WST-1/PMS reduction. As to conditions: Homo sapiens, T-cell, read-out: IC50 inhibition of PMET (WST-1/PMS reduction). The format is cell-based. As to the method:
as §1, §2, §3

In data set [3] the test system is resting T cells. The data set can be described thus: Apoptosis/viability by Annexin V/propidium iodide staining. The format is cell-based, human. As to conditions: 10 μM PXD for 24 h. As to the method: as §1
(§4) Cells were centrifuged at 1400 rpm in a Multifuge 3 s (Heraeus) for 4 min at room temperature, washed in phosphate buffered saline solution, pH 7.3 (PBS) and resuspended in Annexin V binding buffer. Small aliquots (0.5-1×10^6 cells) were transferred to 1.5 mL tubes and spun at 1400 rpm in a Multifuge 3 s (Heraeus) for 4 min. […] Staining was analyzed by flow cytometry using a Becton Dickinson Canto II FACS analyser using FlowJo (TreeStar) software.
(§5) The extent of apoptosis in resting and proliferating T cells was determined after 24 h exposure to 10 μM PXD (FIG. 2) by AV/PI staining. […]

Test in data set [4]: as above
The format is cell-based, human. Particulars: human, resting T cells from PBMC; resting T cells, 10 μM PXD for 24 h; read-out: [% viable blasts after PXD exposure]/[% viable blasts after 0.1% DMSO exposure]. The procedure: as §1, §4, §5

Data set [5] relates to proliferating T cells. Description: Cell viability measured by Trypan blue exclusion. It counts as cell-based, human. Particulars: 10 μM PXD. As to the method:
as §1
(§6) Proliferating and resting PBMCs were centrifuged at 1400 rpm in a Multifuge 3 s (Heraeus) for 4 min at room temperature, resuspended in fresh T cell medium in 96 U-well plates (200 μL per well at densities of 2×10^6 cells/mL) in the presence of PXD or 0.1% DMSO and incubated in a 5% CO2, 37° C. humidified incubator. Viable cells, as determined by Trypan blue exclusion, were counted in a Neubauer haemocytometer every 24 h for several days.

Data set [6] relates to resting T cells. The data set can be described thus: Cell viability measured by Trypan blue exclusion. As to conditions: 10 μM PXD. The format is cell-based, human. The procedure: as §1, §6
For another data set, the system named is primary ALL blasts. The data set can be described thus: Viability of leukemic blasts from bone marrow samples, AV/PI staining. It counts as cell-based, human. The procedure: (§7) FIG. 6. Sensitivity of different cell types to PXD. Different cell types were incubated with 10 μM PXD for 24 h and viability was determined by AV/PI staining and reported as [% viable blasts after PXD exposure]/[% viable blasts after 0.1% DMSO exposure]. Percentage values are as follows: AML-derived HL60: 16±5 and HL60p°: 54±6, ALL-derived MOLT-4: 44±4, MM-derived U226: 59±6 and RPMI 8226: 12±4, primary AML blasts: 64±5, primary ALL blasts: 23±4, normal BM: 89±5, proliferating T cells: 69±4, resting T cells: 98±6. Results from cell lines are presented as the average±SEM of at least 3 separate experiments, results from bone marrow samples are presented as the average±SD of single experiments performed in duplicate.
(§8) Bone marrow samples from AML (n=22) and ALL (n=8) patients, containing more than 80% blasts, were selected from the tissue bank. Bone marrow samples were thawed, centrifuged at 1400 rpm in a Multifuge 3 s (Heraeus) for 4 min, washed twice in RPMI and resuspended in RPMI+10% FCS. Aliquots were incubated for 24 h in the presence of 0.1% DMSO (control) or 10 μM PXD and examined for morphology and viability. […] was determined by AV/PI staining as [% viable blasts after PXD treatment]/[% viable blasts in control sample].
(§9) Cells were centrifuged at 1400 rpm in a Multifuge 3 s (Heraeus) for 4 min at room temperature, washed in phosphate buffered saline solution, pH 7.3 (PBS) and resuspended in Annexin V binding buffer. Small aliquots (0.5-1×10^6 cells) were transferred to 1.5 mL tubes and spun at 1400 rpm in a Multifuge 3 s (Heraeus) for 4 min. Most supernatant was removed and 5 μL PI and 5 μL FITC-labelled AV was added to the wet pellets which were vortexed. After 30 min in the dark on ice, 500 μl of AV binding buffer was added, the cells were centrifuged for 2 min at 1400 rpm, washed once with AV binding buffer and resuspended in 300 μL of AV binding buffer in FACS tubes. Staining was analyzed by flow cytometry using a Becton Dickinson Canto II FACS analyser using FlowJo (TreeStar) software.

Another data set deals with primary AML blasts. The data set is described as above. The format is cell-based, human. The procedure:
as §7, §8, §9

Values joined by “and” are separate entries in the source; they are usually repeats but may differ in a detail not shown here. Identical values can stand only once.

Regarding `Oc1ccc(C2=Cc3ccc(O)cc3OC2)cc1` [PXD, Isoflav-3-en-4′,7-diol], the IC50 with proliferating T cells [1] was 46 µM; in the data set on resting T cells [2], greater than 200 µM. The “percentage of viable resting T cells (AV/PI)” value in the data set with resting T cells [3] was “unaltered”. In data set [4], the viability at 24 h, 10 μM is 98 ± 6%. In addition, the “viability (Trypan blue exclusion)” value is “severely compromised” with proliferating T cells [5] and “remain viable” with resting T cells [6]. Moreover, the viability at 10 µM in the data set with primary ALL blasts (Homo sapiens, 24 h, primary ALL blasts (average), 10 μM PXD for 24 h, read-out: [% viable blasts after PXD exposure]/[% viable blasts after 0.1% DMSO exposure]) came to 23 ± 4%; with primary AML blasts (Homo sapiens, 24 h, primary AML blasts (average), 10 μM PXD for 24 h, read-out: [% viable blasts after PXD exposure]/[% viable blasts after 0.1% DMSO exposure]), 64 ± 5%. For the same compound, the “% Viable Blasts” value was 25% and 29% and 37% and 40% and 7% and 14% and 16% and 19% in the data set on primary ALL blasts (individual ALL patient bone marrow samples, 10 μM PXD 24 h, relative to 0.1% DMSO control); 23% and 32% and 36% and 39% and 44% and 49% and 55% and 57% and 58% and 62% and 67% and 71% and 75% and 88% and 92% and 95% and 96% and 97% and 99% and 20% in the data set with primary AML blasts (individual AML patient bone marrow samples, 10 μM PXD 24 h, relative to 0.1% DMSO control).
